Experiments:
Test in all cases: relative viability (nuclei count vs DMSO), 5 days (fraction); higher = more cells survive
ChaGo-K-1 = system: ChaGo-K-1
Procedure, shortened: (§1)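 Medians of duplicate plates are given as relative viability. That measure is the nuclei count in treated wells divided by the count in vehicle wells. Counts were taken on 4× images of lung cancer cell lines in 1536-well plates, 5 days after pin-tool dosing the day after seeding with one drug alone or a fixed anchor-drug dose plus five library-drug doses (not always all listed) in √10 steps.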

EMC-BAC-2 = system: EMC-BAC-2
Procedure, shortened: as §1

EPLC-272H = system: EPLC-272H
Procedure, shortened: as §1

H3255 = system: H3255
Procedure, shortened: as §1

HCC-44 = system: HCC-44
Procedure, shortened: as §1

HCC-827 = system: HCC-827
Procedure, shortened: as §1

LCLC-103H = system: LCLC-103H
Procedure, shortened: as §1

LCLC-97TM1 = system: LCLC-97TM1
Procedure, shortened: as §1

NCI-H1355 = system: NCI-H1355
Procedure, shortened: as §1

NCI-H1395 = system: NCI-H1395
Procedure, shortened: as §1

NCI-H1651 = system: NCI-H1651
Procedure, shortened: as §1

NCI-H1793 = system: NCI-H1793
Procedure, shortened: as §1

NCI-H1944 = system: NCI-H1944
Procedure, shortened: as §1

NCI-H2023 = system: NCI-H2023
Procedure, shortened: as §1

NCI-H2085 = system: NCI-H2085
Procedure, shortened: as §1

NCI-H2087 = system: NCI-H2087
Procedure, shortened: as §1

NCI-H2405 = system: NCI-H2405
Procedure, shortened: as §1

NCI-H322M = system: NCI-H322M
Procedure, shortened: as §1

NCI-H520 = system: NCI-H520
Procedure, shortened: as §1

NCI-H650 = system: NCI-H650
Procedure, shortened: as §1

SK-MES-1 = system: SK-MES-1
Procedure, shortened: as §1

UMC-11 = system: UMC-11
Procedure, shortened: as §1

NC(=O)Nc1cc(-c2cccc(F)c2)sc1C(=O)N[C@H]1CCCNC1 [AZD7762] + Cc1cc(Nc2cc(N3CCN(C)CC3)nc(Sc3ccc(NC(=O)C4CC4)cc3)n2)n[nH]1 [Tozasertib] (partner 0.1 µM)
relative viability (ChaGo-K-1; first compound 0.01 µM): 0.215 | relative viability (ChaGo-K-1; first compound 0.03162 µM): 0.224 | relative viability (ChaGo-K-1; first compound 0.1 µM): 0.239 | relative viability (ChaGo-K-1; first compound 0.3162 µM): 0.197 | relative viability (ChaGo-K-1; first compound 1 µM): 0.227 | relative viability (EMC-BAC-2; first compound 0.01 µM): 0.295 | relative viability (EMC-BAC-2; first compound 0.03162 µM): 0.302 | relative viability (EMC-BAC-2; first compound 0.1 µM): 0.326 | relative viability (EMC-BAC-2; first compound 0.3162 µM): 0.321 | relative viability (EMC-BAC-2; first compound 1 µM): 0.282 | relative viability (EPLC-272H; first compound 0.01 µM): 0.274 | relative viability (EPLC-272H; first compound 0.03162 µM): 0.242 | relative viability (EPLC-272H; first compound 0.1 µM): 0.248 | relative viability (EPLC-272H; first compound 0.3162 µM): 0.28 | relative viability (EPLC-272H; first compound 1 µM): 0.0908 | relative viability (H3255; first compound 0.01 µM): 0.704 | relative viability (H3255; first compound 0.03162 µM): 0.595 | relative viability (H3255; first compound 0.1 µM): 0.677 | relative viability (H3255; first compound 0.3162 µM): 0.591 | relative viability (H3255; first compound 1 µM): 0.576 | relative viability (HCC-44; first compound 0.01 µM): 1.1 | relative viability (HCC-44; first compound 0.03162 µM): 0.87 | relative viability (HCC-44; first compound 0.1 µM): 0.714 | relative viability (HCC-44; first compound 0.3162 µM): 0.822 | relative viability (HCC-44; first compound 1 µM): 0.412 | relative viability (HCC-827; first compound 0.01 µM): 0.41 | relative viability (HCC-827; first compound 0.03162 µM): 0.449 | relative viability (HCC-827; first compound 0.1 µM): 0.409 | relative viability (HCC-827; first compound 0.3162 µM): 0.394 | relative viability (HCC-827; first compound 1 µM): 0.372 | relative viability (LCLC-103H; first compound 0.01 µM): 0.522 | relative viability (LCLC-103H; first compound 0.03162 µM): 0.442 | relative viability (LCLC-103H; first compound 0.1 µM): 0.524 | relative viability (LCLC-103H; first compound 0.3162 µM): 0.516 | relative viability (LCLC-103H; first compound 1 µM): 0.323 | relative viability (LCLC-97TM1; first compound 0.01 µM): 0.325 | relative viability (LCLC-97TM1; first compound 0.03162 µM): 0.263 | relative viability (LCLC-97TM1; first compound 0.1 µM): 0.225 | relative viability (LCLC-97TM1; first compound 0.3162 µM): 0.398 | relative viability (LCLC-97TM1; first compound 1 µM): 0.292 | relative viability (NCI-H1355; first compound 0.01 µM): 0.621 | relative viability (NCI-H1355; first compound 0.03162 µM): 0.693 | relative viability (NCI-H1355; first compound 0.1 µM): 0.566 | relative viability (NCI-H1355; first compound 0.3162 µM): 0.666 | relative viability (NCI-H1355; first compound 1 µM): 0.532 | relative viability (NCI-H1395; first compound 0.01 µM): 0.771 | relative viability (NCI-H1395; first compound 0.03162 µM): 0.851 | relative viability (NCI-H1395; first compound 0.1 µM): 0.742 | relative viability (NCI-H1395; first compound 0.3162 µM): 0.673 | relative viability (NCI-H1395; first compound 1 µM): 0.386 | relative viability (NCI-H1651; first compound 0.01 µM): 0.788 | relative viability (NCI-H1651; first compound 0.03162 µM): 0.769 | relative viability (NCI-H1651; first compound 0.1 µM): 0.74 | relative viability (NCI-H1651; first compound 0.3162 µM): 0.395 | relative viability (NCI-H1651; first compound 1 µM): 0.191 | relative viability (NCI-H1793; first compound 0.01 µM): 0.395 | relative viability (NCI-H1793; first compound 0.03162 µM): 0.403 | relative viability (NCI-H1793; first compound 0.1 µM): 0.314 | relative viability (NCI-H1793; first compound 0.3162 µM): 0.374 | relative viability (NCI-H1793; first compound 1 µM): 0.198 | relative viability (NCI-H1944; first compound 0.01 µM): 0.253 | relative viability (NCI-H1944; first compound 0.03162 µM): 0.257 | relative viability (NCI-H1944; first compound 0.1 µM): 0.285 | relative viability (NCI-H1944; first compound 0.3162 µM): 0.301 | relative viability (NCI-H1944; first compound 1 µM): 0.248 | relative viability (NCI-H2023; first compound 0.01 µM): 0.374 | relative viability (NCI-H2023; first compound 0.03162 µM): 0.307 | relative viability (NCI-H2023; first compound 0.1 µM): 0.227 | relative viability (NCI-H2023; first compound 0.3162 µM): 0.105 | relative viability (NCI-H2023; first compound 1 µM): 0.0751 | relative viability (NCI-H2085; first compound 0.01 µM): 0.875 | relative viability (NCI-H2085; first compound 0.03162 µM): 0.769 | relative viability (NCI-H2085; first compound 0.1 µM): 0.807 | relative viability (NCI-H2085; first compound 0.3162 µM): 0.729 | relative viability (NCI-H2085; first compound 1 µM): 0.713 | relative viability (NCI-H2087; first compound 0.01 µM): 0.24 | relative viability (NCI-H2087; first compound 0.03162 µM): 0.266 | relative viability (NCI-H2087; first compound 0.1 µM): 0.323 | relative viability (NCI-H2087; first compound 0.3162 µM): 0.285 | relative viability (NCI-H2087; first compound 1 µM): 0.232 | relative viability (NCI-H2405; first compound 0.01 µM): 0.793 | relative viability (NCI-H2405; first compound 0.03162 µM): 0.832 | relative viability (NCI-H2405; first compound 0.1 µM): 0.783 | relative viability (NCI-H2405; first compound 0.3162 µM): 0.748 | relative viability (NCI-H2405; first compound 1 µM): 0.424 | relative viability (NCI-H322M; first compound 0.01 µM): 0.47 | relative viability (NCI-H322M; first compound 0.03162 µM): 0.515 | relative viability (NCI-H322M; first compound 0.1 µM): 0.514 | relative viability (NCI-H322M; first compound 0.3162 µM): 0.307 | relative viability (NCI-H322M; first compound 1 µM): 0.305 | relative viability (NCI-H520; first compound 0.01 µM): 0.493 | relative viability (NCI-H520; first compound 0.03162 µM): 0.36 | relative viability (NCI-H520; first compound 0.1 µM): 0.425 | relative viability (NCI-H520; first compound 0.3162 µM): 0.39 | relative viability (NCI-H520; first compound 1 µM): 0.275 | relative viability (NCI-H650; first compound 0.01 µM): 0.71 | relative viability (NCI-H650; first compound 0.03162 µM): 0.643 | relative viability (NCI-H650; first compound 0.1 µM): 0.709 | relative viability (NCI-H650; first compound 0.3162 µM): 0.704 | relative viability (NCI-H650; first compound 1 µM): 0.526 | relative viability (SK-MES-1; first compound 0.01 µM): 0.936 | relative viability (SK-MES-1; first compound 0.03162 µM): 0.865 | relative viability (SK-MES-1; first compound 0.1 µM): 0.798 | relative viability (SK-MES-1; first compound 0.3162 µM): 0.262 | relative viability (SK-MES-1; first compound 1 µM): 0.129 | relative viability (UMC-11; first compound 0.01 µM): 0.191 | relative viability (UMC-11; first compound 0.03162 µM): 0.216 | relative viability (UMC-11; first compound 0.1 µM): 0.202 | relative viability (UMC-11; first compound 0.3162 µM): 0.194 | relative viability (UMC-11; first compound 1 µM): 0.191
